This is an account of results in US9150577B2, “Heterocyclic compounds containing an indole core” (Boehringer Ingelheim International GmbH, priority 2009, dated 2015).

The term IC50 denotes the midpoint of a concentration-inhibition curve.

The target of the assay is Human RSK2 (Homo sapiens (Human), UniProt P51812). As to the kind of experiment: Human RSK2 assay (Kinase Glo Plus, residual ATP).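 Note: recombinant human RSK2 phosphorylating a substrate peptide, 90 min at 28 °C, leftover ATP read by luminescence, RLU scaled between no-kinase background and uninhibited kinase controls, 4-parameter fit.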 Type of assay: biochemical. For orientation: Kinase-Glo reads ATP consumption through a luciferase reaction.
Chain of Human RSK2 (P51812 whole entry): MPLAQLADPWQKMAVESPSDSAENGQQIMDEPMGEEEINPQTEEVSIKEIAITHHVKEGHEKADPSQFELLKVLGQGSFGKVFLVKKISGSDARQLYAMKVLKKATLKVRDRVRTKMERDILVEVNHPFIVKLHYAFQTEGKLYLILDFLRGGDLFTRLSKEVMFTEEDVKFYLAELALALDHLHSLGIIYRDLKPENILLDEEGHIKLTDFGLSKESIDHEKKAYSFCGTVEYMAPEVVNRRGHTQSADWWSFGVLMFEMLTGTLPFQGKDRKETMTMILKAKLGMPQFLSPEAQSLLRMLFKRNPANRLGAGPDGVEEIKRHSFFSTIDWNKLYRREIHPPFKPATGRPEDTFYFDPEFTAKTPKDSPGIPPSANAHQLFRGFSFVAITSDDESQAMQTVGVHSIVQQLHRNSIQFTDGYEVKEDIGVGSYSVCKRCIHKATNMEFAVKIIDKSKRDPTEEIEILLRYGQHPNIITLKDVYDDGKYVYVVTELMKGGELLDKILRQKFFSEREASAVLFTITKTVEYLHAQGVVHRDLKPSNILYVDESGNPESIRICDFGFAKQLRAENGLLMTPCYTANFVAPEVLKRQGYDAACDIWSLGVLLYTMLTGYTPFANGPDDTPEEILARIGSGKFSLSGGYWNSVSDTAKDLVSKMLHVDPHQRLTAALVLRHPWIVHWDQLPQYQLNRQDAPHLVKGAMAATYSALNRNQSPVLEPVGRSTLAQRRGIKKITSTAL
As to `CN1CCC(Cn2c(NC(=O)c3ccc4cc5n(c4c3)CCCNC5=O)nc3ccccc32)CC1` [Example 88, N-{1-[(1-methylpiperidin-4-yl)methyl]-1H-benzimidazol-2-yl}-1-oxo-2,3,4,5-tetrahydro-1H-[1,4]diazepino[1,2-a]indole-8-carboxamide], the IC50 was 21 nM.
The same measure for `O=C(Nc1cccc(N2CCOCC2)c1)c1ccc2cc3n(c2c1)CCCNC3=O` [Example 7, N-[3-(morpholin-4-yl)phenyl]-1-oxo-2,3,4,5-tetrahydro-1H-[1,4]diazepino[1,2-a]indole-8-carboxamide]: 60 nM; for `C[C@@H]1CNC(=O)c2cc3ccc(C(=O)Nc4cnn(Cc5ccccc5)c4)cc3n21` [Example 130, (4R)-N-(1-benzyl-1H-pyrazol-4-yl)-4-methyl-1-oxo-1,2,3,4-tetrahydropyrazino[1,2-a]indole-7-carboxamide]: 0.6 nM; for `Cn1cc(NC(=O)c2ccc3cc4n(c3c2)CC(C)(C)CNC4=O)cn1` [Example 163, 4,4-dimethyl-N-(1-methyl-1H-pyrazol-4-yl)-1-oxo-2,3,4,5-tetrahydro-1H-[1,4]diazepino[1,2-a]indole-8-carboxamide]: 335 nM.
The same measure for `O=C(Nc1cnn(Cc2ccccc2)c1)c1ccc2cc3n(c2c1)CC(F)(F)CNC3=O` [Example 115, N-(1-benzyl-1H-pyrazol-4-yl)-4,4-difluoro-1-oxo-2,3,4,5-tetrahydro-1H-[1,4]diazepino[1,2-a]indole-8-carboxamide]: 32 nM; for `Cc1cccc(-c2cc(NC(=O)c3ccc4cc5n(c4c3)CCCNC5=O)on2)c1` [Example 200, N-[3-(3-methylphenyl)-1,2-oxazol-5-yl]-1-oxo-2,3,4,5-tetrahydro-1H-[1,4]diazepino[1,2-a]indole-8-carboxamide]: 160 nM; for `O=C(Nc1cnn(C2CCOC2)c1)c1ccc2cc3n(c2c1)CCCNC3=O` (stereo not drawn) [Example 26, 1-oxo-N-[1-(tetrahydrofuran-3-yl)-1H-pyrazol-4-yl]-2,3,4,5-tetrahydro-1H-[1,4]diazepino[1,2-a]indole-8-carboxamide]: 27 nM.
Then `C[C@@H]1CCNC(=O)c2cc3ccc(C(=O)Nc4cnn(Cc5ccccc5)c4)cc3n21` [Example 143, (5R)-N-(1-benzyl-1H-pyrazol-4-yl)-5-methyl-1-oxo-2,3,4,5-tetrahydro-1H-[1,4]diazepino[1,2-a]indole-8-carboxamide], with 0.71 nM.
On to `CC(C)(CO)c1cc(NC(=O)c2ccc3cc4n(c3c2)CCCNC4=O)on1` [Example 208, N-[3-(1-hydroxy-2-methylpropan-2-yl)-1,2-oxazol-5-yl]-1-oxo-2,3,4,5-tetrahydro-1H-[1,4]diazepino[1,2-a]indole-8-carboxamide], for which the IC50 stood at 96 nM.
Then `Cc1cc(NC(=O)c2ccc3cc4n(c3c2)[C@@H](C)[C@H](C)NC4=O)no1` (relative stereo) [Example 168, Trans-3,4-dimethyl-N-(5-methyl-1,2-oxazol-3-yl)-1-oxo-1,2,3,4-tetrahydropyrazino[1,2-a]indole-7-carboxamide], with 160 nM; and `Cc1cc(NC(=O)c2ccc3cc4n(c3c2)[C@H](C)CNC4=O)no1` [Example 128, (4R)-4-methyl-N-(5-methyl-1,2-oxazol-3-yl)-1-oxo-1,2,3,4-tetrahydropyrazino[1,2-a]indole-7-carboxamide], with 6.6 nM.
The same measure for `C[C@@H]1CNC(=O)c2cc3ccc(C(=O)Nc4cnn(Cc5ccccc5)c4)cc3n2[C@H]1C` [Example 137, (4R,5S)-N-(1-benzyl-1H-pyrazol-4-yl)-trans-4,5-dimethyl-1-oxo-2,3,4,5-tetrahydro-1H-[1,4]diazepino[1,2-a]indole-8-carboxamide]: 43.5 nM; for `CC(C)(O)Cn1c(NC(=O)c2ccc3cc4n(c3c2)CC(C)(C)CNC4=O)nc2ccccc21` [Example 86, N-[1-(2-hydroxy-2-methylpropyl)-1H-benzimidazol-2-yl]-4,4-dimethyl-1-oxo-2,3,4,5-tetrahydro-1H-[1,4]diazepino[1,2-a]indole-8-carboxamide]: 5.9 nM; for `CC1(C)CNC(=O)c2cc3ccc(C(=O)Nc4cn[nH]c4)cc3n2C1` [Example 16, 4,4-dimethyl-1-oxo-N-(1H-pyrazol-4-yl)-2,3,4,5-tetrahydro-1H-[1,4]diazepino[1,2-a]indole-8-carboxamide]: 2500 nM.
Then `Cn1c(-c2ccccc2)cnc1NC(=O)c1ccc2cc3n(c2c1)CCCNC3=O` [Example 107, N-(1-methyl-5-phenyl-1H-imidazol-2-yl)-1-oxo-2,3,4,5-tetrahydro-1H-[1,4]diazepino[1,2-a]indole-8-carboxamide], with 500 nM; and `O=C(Nc1nc2cc(F)ccc2[nH]1)c1ccc2cc3n(c2c1)CCCNC3=O` [Example 51, N-(5-fluoro-1H-benzimidazol-2-yl)-1-oxo-2,3,4,5-tetrahydro-1H-[1,4]diazepino[1,2-a]indole-8-carboxamide], with 5.2 nM.
`Cc1ccc(-c2cccc(NC(=O)c3ccc4cc5n(c4c3)CCCNC5=O)c2)s1` [Example 228, N-[3-(5-methylthiophen-2-yl)phenyl]-1-oxo-2,3,4,5-tetrahydro-1H-[1,4]diazepino[1,2-a]indole-8-carboxamide]: the IC50 worked out at 4100 nM.
For the compound `CN(C)CCCn1c(NC(=O)c2ccc3cc4n(c3c2)CC(F)(F)CNC4=O)nc2ccccc21` [Example 121, N-{1-[3-(dimethylamino)propyl]-1H-benzimidazol-2-yl}-4,4-difluoro-1-oxo-2,3,4,5-tetrahydro-1H-[1,4]diazepino[1,2-a]indole-8-carboxamide], the IC50 is 23 nM.
Then `CC1CNC(=O)c2cc3ccc(C(=O)Nc4nc5ccccc5[nH]4)cc3n21` (stereo not drawn) [Example 57, N-(1H-benzimidazol-2-yl)-4-methyl-1-oxo-1,2,3,4-tetrahydropyrazino[1,2-a]indole-7-carboxamide], with 0.59 nM; and `CC(C)c1ccc2[nH]c(NC(=O)c3ccc4cc5n(c4c3)CCCNC5=O)nc2c1` [Example 42, 1-oxo-N-[5-(propan-2-yl)-1H-benzimidazol-2-yl]-2,3,4,5-tetrahydro-1H-[1,4]diazepino[1,2-a]indole-8-carboxamide], with 6.2 nM.
Then `CC(C)CCn1cc(NC(=O)c2ccc3cc4n(c3c2)CCCNC4=O)cn1` [Example 35, N-[1-(3-methylbutyl)-1H-pyrazol-4-yl]-1-oxo-2,3,4,5-tetrahydro-1H-[1,4]diazepino[1,2-a]indole-8-carboxamide], with 11 nM; and `NC(=O)c1ccccc1NC(=O)c1ccc2cc3n(c2c1)CCCNC3=O` [Example 215, N-(2-carbamoylphenyl)-1-oxo-2,3,4,5-tetrahydro-1H-[1,4]diazepino[1,2-a]indole-8-carboxamide], with 21 nM; and `O=C(Nc1cnn(C2CCOCC2)c1)c1ccc2cc3n(c2c1)CCCNC3=O` [Example 27, 1-oxo-N-[1-(tetrahydro-2H-pyran-4-yl)-1H-pyrazol-4-yl]-2,3,4,5-tetrahydro-1H-[1,4]diazepino[1,2-a]indole-8-carboxamide], with 46 nM.
The same measure for `O=C(Nc1cc(-c2ccccc2)[nH]n1)c1ccc2cc3n(c2c1)CCCNC3=O` [Example 218, 1-oxo-N-(5-phenyl-1H-pyrazol-3-yl)-2,3,4,5-tetrahydro-1H-[1,4]diazepino[1,2-a]indole-8-carboxamide]: 40 nM.
For the compound `C[C@H]1NC(=O)c2cc3ccc(C(=O)Nc4nc5ccccc5n4CCCN(C)C)cc3n2[C@H]1C` (relative stereo) [Example 90, N-{1-[3-(dimethylamino)propyl]-1H-benzimidazol-2-yl}-cis-3,4-dimethyl-1-oxo-1,2,3,4-tetrahydropyrazino[1,2-a]indole-7-carboxamide], the IC50 turned out to be 2.1 nM.
Then `CC1CCNC(=O)c2cc3ccc(C(=O)Nc4cn(C)c(C(=O)NC5CCCC5)n4)cc3n21` (stereo not drawn) [Example 234, N-[2-(cyclopentylcarbamoyl)-1-methyl-1H-imidazol-4-yl]-5-methyl-1-oxo-2,3,4,5-tetrahydro-1H-[1,4]diazepino[1,2-a]indole-8-carboxamide], with 2.1 nM; and `Cn1c(NC(=O)c2ccc3cc4n(c3c2)CCCNC4=O)nc2ccc(Cl)cc21` [Example 52, N-(6-chloro-1-methyl-1H-benzimidazol-2-yl)-1-oxo-2,3,4,5-tetrahydro-1H-[1,4]diazepino[1,2-a]indole-8-carboxamide], with 170 nM.
Then `C[C@H]1CNC(=O)c2cc3ccc(C(=O)Nc4cccnc4)cc3n2[C@H]1C` (relative stereo) [Example 150, Cis-4,5-dimethyl-1-oxo-N-(pyridin-3-yl)-2,3,4,5-tetrahydro-1H-[1,4]diazepino[1,2-a]indole-8-carboxamide], with 240 nM.
The same measure for `Cn1c(NC(=O)c2ccc3cc4n(c3c2)CC(C)(C)CNC4=O)nc2ccccc21` [Example 60, 4,4-dimethyl-N-(1-methyl-1H-benzimidazol-2-yl)-1-oxo-2,3,4,5-tetrahydro-1H-[1,4]diazepino[1,2-a]indole-8-carboxamide]: 20 nM; for `Cc1cc(NC(=O)c2ccc3cc4n(c3c2)CC(F)(F)CNC4=O)no1` [Example 167, 4,4-difluoro-N-(5-methyl-1,2-oxazol-3-yl)-1-oxo-2,3,4,5-tetrahydro-1H-[1,4]diazepino[1,2-a]indole-8-carboxamide]: 670 nM; for `CCn1c(NC(=O)c2ccc3cc4n(c3c2)C(C)(C)CNC4=O)nc2ccccc21` [Example 82, N-(1-ethyl-1H-benzimidazol-2-yl)-4,4-dimethyl-1-oxo-1,2,3,4-tetrahydropyrazino[1,2-a]indole-7-carboxamide]: 0.25 nM.
For the compound `Cn1ccnc1NC(=O)c1ccc2cc3n(c2c1)CCCNC3=O` [Example 109, N-(1-methyl-1H-imidazol-2-yl)-1-oxo-2,3,4,5-tetrahydro-1H-[1,4]diazepino[1,2-a]indole-8-carboxamide], the IC50 was 2200 nM.
The same measure for `CN(C)CCn1cc(NC(=O)c2ccc3cc4n(c3c2)CCCNC4=O)cn1` [Example 119, N-{1-[2-(dimethylamino)ethyl]-1H-pyrazol-4-yl}-1-oxo-2,3,4,5-tetrahydro-1H-[1,4]diazepino[1,2-a]indole-8-carboxamide]: 120 nM.
